From patent publication US20240368120A1 (Terns Pharmaceuticals, Inc., priority 2023, published 2024)

Target: T1, human GLP-1R receptor (Homo sapiens, UniProt P43220)
T1 construct: expressed in transfected cells
Test: GLP-1R low expression cell assay (cAMP TR-FRET, CHO-K1_hGLP-1Rlow_clone10 cells)
Assay type: cell-based
Conditions: for EC50: cAMP TR-FRET, 30 min at 25° C.; for Emax: maximum activation relative to control GLP-1 peptide agonist
In short: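 CHO-K1 cells stably expressing low surface human GLP-1R (clone10), 1,000 cells/well, exposed to 10-point 3-fold compound dilutions for 30 min at 25 °C. cAMP measured by TR-FRET (Eu-cAMP tracer/ULight-anti-cAMP, 15 min). EC50 from Hill fit of duplicate percent activation relative to a parallel GLP-1 control agonist.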

T1 sequence (P43220 24-463): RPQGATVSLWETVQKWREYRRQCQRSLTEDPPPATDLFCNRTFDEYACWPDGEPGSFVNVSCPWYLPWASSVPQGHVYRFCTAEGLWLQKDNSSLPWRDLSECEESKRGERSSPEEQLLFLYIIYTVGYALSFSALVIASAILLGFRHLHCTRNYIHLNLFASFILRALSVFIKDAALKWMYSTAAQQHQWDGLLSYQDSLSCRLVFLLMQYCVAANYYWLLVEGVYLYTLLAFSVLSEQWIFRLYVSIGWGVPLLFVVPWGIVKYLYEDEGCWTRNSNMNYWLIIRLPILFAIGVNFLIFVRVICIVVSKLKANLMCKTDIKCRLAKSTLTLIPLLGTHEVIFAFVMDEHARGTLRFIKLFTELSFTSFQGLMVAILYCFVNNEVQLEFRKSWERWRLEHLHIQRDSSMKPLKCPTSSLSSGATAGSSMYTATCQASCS

Row | SMILES | EC50 | Emax
1 | C[C@]1(c2ccc(Cl)cn2)Oc2cccc(C3CCN(Cc4nc5c6c(c(C(=O)O)cc5n4C[C@@H]4CCO4)OCCO6)CC3)c2O1 [Compound 93, 2-((4-((S)-2-(5-Chloropyridin-2-yl)-2-methylbenzo[d][1,3]dioxol-4-yl)piperidin-1-yl)methyl)-3-(((S)-oxetan-2-yl)methyl)-7,8-dihydro-3H-[1,4]dioxino[2′,3′:3,4]benzo[1,2-d]imidazole-5-carboxylic acid] | < 10 nM | > 85%
2 | Cn1c(CN2CCC(c3nc(OCc4ccc(Cl)cc4F)ncc3F)CC2)nc2c(OC(F)F)cc(C(=O)O)cc21 [Compound 375, 2-((4-(2-((4-Chloro-2-fluorobenzyl)oxy)-5-fluoropyrimidin-4-yl)piperidin-1-yl)methyl)-4-(difluoromethoxy)-1-methyl-1H-benzo[d]imidazole-6-carboxylic acid] | 100 to 1000 nM | > 85%
3 | Cn1c(CN2CCC(Oc3cccc(Cc4ccc(C#N)cc4F)n3)CC2)nc2c(OC(F)F)cc(C(=O)O)cc21 [Compound 157, 2-((4-((6-(4-Cyano-2-fluorobenzyl)pyridin-2-yl)oxy)piperidin-1-yl)methyl)-4-(difluoromethoxy)-1-methyl-1H-benzo[d]imidazole-6-carboxylic acid] | 100 to 1000 nM | > 85%
4 | COc1cc(C(=O)O)cc2c1nc(CN1CCC(c3cccc4c3OC[C@H](c3ccc(Cl)cc3F)O4)CC1)n2C [Compound 258, (S)-2-((4-(2-(4-Chloro-2-fluorophenyl)-2,3-dihydrobenzo[b][1,4]dioxin-5-yl)piperidin-1-yl)methyl)-4-methoxy-1-methyl-1H-benzo[d]imidazole-6-carboxylic acid] | 100 to 1000 nM | > 85%
5 | Cn1c(CN2CCC(c3cccc4c3O[C@@H](c3ccc(Cl)cc3F)CC4)CC2)nc2c(OC(F)F)cc(C(=O)O)cc21 [Compound 369, (R)-2-((4-(2-(4-Chloro-2-fluorophenyl)chroman-8-yl)piperidin-1-yl)methyl)-4-(difluoromethoxy)-1-methyl-1H-benzo[d]imidazole-6-carboxylic acid] | > 1000 nM | < 25%
6 | COc1cc(C(=O)O)cc2c1nc(N(C)[C@H]1CC[C@H](c3cccc(OCc4ccc(C#N)cc4F)n3)CC1)n2C [Compound 178, 2-(((1r,4r)-4-(6-((4-Cyano-2-fluorobenzyl)oxy)pyridin-2-yl)cyclohexyl)(methyl)amino)-4-methoxy-1-methyl-1H-benzo[d]imidazole-6-carboxylic acid] | < 10 nM | > 85%
7 | COc1cc(C(=O)O)cc2c1nc(N(C)[C@H]1CC[C@H](c3cccc(OCc4ccc(Cl)cc4F)n3)CC1)n2C [Compound 363, 2-(((1r,4r)-4-(6-((4-Chloro-2-fluorobenzyl)oxy)pyridin-2-yl)cyclohexyl)(methyl)amino)-4-methoxy-1-methyl-1H-benzo[d]imidazole-6-carboxylic acid] | < 10 nM | > 85%
8 | CCn1c(CN2CCC(c3cccc4c3O[C@@](C)(c3ccc(Cl)cn3)O4)CC2)nc2c(OC(C)C)cc(C(=O)O)cc21 [Compound 88, (S)-2-((4-(2-(5-Chloropyridin-2-yl)-2-methylbenzo[d][1,3]dioxol-4-yl)piperidin-1-yl)methyl)-1-ethyl-4-isopropoxy-1H-benzo[d]imidazole-6-carboxylic acid] | 10 to 100 nM | > 85%
9 | CN1C(=O)[C@@H](c2ccc(Cl)cc2F)Oc2c(C3CCN(Cc4nc5c(OC(F)F)cc(C(=O)O)cc5n4C)CC3)cccc21 [Compound 240, (R)-2-((4-(2-(4-chloro-2-fluorophenyl)-4-methyl-3-oxo-3,4-dihydro-2H-benzo[b][1,4]oxazin-8-yl)piperidin-1-yl)methyl)-4-(difluoromethoxy)-1-methyl-1H-benzo[d]imidazole-6-carboxylic acid] | > 1000 nM | < 25%
10 | Cn1c(Cc2ccc(-c3cccc(OCc4ccc(C#N)cc4F)n3)cc2F)nc2c(OC(F)F)cc(C(=O)O)cc21 [Compound 120, 2-(4-(6-((4-Cyano-2-fluorobenzyl)oxy)pyridin-2-yl)-2-fluorobenzyl)-4-(difluoromethoxy)-1-methyl-1H-benzo[d]imidazole-6-carboxylic acid] | < 10 nM | > 85%
11 | Cn1c(CN2CCC(c3cccc4c3O[C@H](c3ccc(Cl)cc3F)CO4)CC2)nc2c(OCCF)cc(C(=O)O)cc21 [Compound 333, (R)-2-((4-(3-(4-chloro-2-fluorophenyl)-2,3-dihydrobenzo[b][1,4]dioxin-5-yl)piperidin-1-yl)methyl)-4-(2-fluoroethoxy)-1-methyl-1H-benzo[d]imidazole-6-carboxylic acid] | 100 to 1000 nM | > 85%
12 | CO[C@H]1C[C@@H](Oc2cc(C(=O)O)cc3c2nc(CN2CCC(c4cccc(OCc5ccc(C#N)cc5F)n4)CC2)n3C)C1 [Compound 318, 2-((4-(6-((4-Cyano-2-fluorobenzyl)oxy)pyridin-2-yl)piperidin-1-yl)methyl)-4-((1s,3s)-3-methoxycyclobutoxy)-1-methyl-1H-benzo[d]imidazole-6-carboxylic acid] | 100 to 1000 nM | > 85%
13 | CCOc1cc(C(=O)O)cc2c1nc(CN1CCC(c3cccc4c3O[C@@H](c3ccc(C#N)cc3F)CO4)CC1)n2C [Compound 287, (S)-2-((4-(3-(4-Cyano-2-fluorophenyl)-2,3-dihydrobenzo[b][1,4]dioxin-5-yl)piperidin-1-yl)methyl)-4-ethoxy-1-methyl-1H-benzo[d]imidazole-6-carboxylic acid] | > 1000 nM | > 85%

Other lines, results leading:

Row | EC50 | Emax | SMILES
14 | < 10 nM | > 85% | CC(F)Oc1cc(C(=O)O)cc2c1nc(CN1CCC(c3cccc(OCc4ccc(Cl)cc4F)n3)CC1)n2C (centres unmarked) [Compound 359, 2-((4-(6-((4-Chloro-2-fluorobenzyl)oxy)pyridin-2-yl)piperidin-1-yl)methyl)-4-(1-fluoroethoxy)-1-methyl-1H-benzo[d]imidazole-6-carboxylic acid]
15 | 10 to 100 nM | > 85% | Cn1c(CN2CCC(c3cccc(OCc4ccc(Cl)cc4F)n3)CC2)nc2c(C#N)cc(C(=O)O)cc21 [Compound 189, 2-((4-(6-((4-chloro-2-fluorobenzyl)oxy)pyridin-2-yl)piperidin-1-yl)methyl)-4-cyano-1-methyl-1H-benzo[d]imidazole-6-carboxylic acid]
16 | < 10 nM | > 85% | COc1cc(C(=O)O)cc2c1nc(CN1CCC(c3cccc(OCc4cc(F)c(Cl)cc4F)n3)CC1)n2C [Compound 272, 2-((4-(6-((4-Chloro-2,5-difluorobenzyl)oxy)pyridin-2-yl)piperidin-1-yl)methyl)-4-methoxy-1-methyl-1H-benzo[d]imidazole-6-carboxylic acid]
17 | > 1000 nM | 50 to 85% | CNC(=O)c1cc(OC)c2nc(CN3CCC(c4cccc(OCc5ccc(Cl)cc5F)n4)CC3)n(C)c2c1 [Compound 280, 2-((4-(6-((4-chloro-2-fluorobenzyl)oxy)pyridin-2-yl)piperidin-1-yl)methyl)-4-methoxy-N, 1-dimethyl-1H-benzo[d]imidazole-6-carboxamide]
18 | 100 to 1000 nM | > 85% | Cn1c(CN2CCC(c3cccc(OCc4ccc(OC(F)(F)F)cc4F)n3)CC2)nc2c(OC(F)F)cc(C(=O)O)cc21 [Compound 222]
19 | < 10 nM | > 85% | Cn1c(CN2CCC(c3cccc(OCc4ccc(Cl)cc4F)n3)CC2)nc2c(OCCO)cc(C(=O)O)cc21 [Compound 343, 2-((4-(6-((4-Chloro-2-fluorobenzyl)oxy)pyridin-2-yl)piperidin-1-yl)methyl)-4-(2-hydroxyethoxy)-1-methyl-1H-benzo[d]imidazole-6-carboxylic acid]
20 | < 10 nM | > 85% | CCOc1cc(C(=O)O)cc2c1nc(CN1CCC(Oc3cccc(COc4ccc(Cl)cc4F)n3)CC1)n2C [Compound 256, 2-((4-((6-((4-chloro-2-fluorophenoxy)methyl)pyridin-2-yl)oxy)piperidin-1-yl)methyl)-4-ethoxy-1-methyl-1H-benzo[d]imidazole-6-carboxylic acid]
21 | 10 to 100 nM | > 85% | Cn1c(CN2CCC(c3cccc(OCc4ccc(OC(F)F)cc4F)n3)CC2)nc2c(OC(F)F)cc(C(=O)O)cc21 [Compound 221, 4-(Difluoromethoxy)-2-((4-(6-((4-(difluoromethoxy)-2-fluorobenzyl)oxy)pyridin-2-yl)piperidin-1-yl)methyl)-1-methyl-1H-benzo[d]imidazole-6-carboxylic acid]
22 | 100 to 1000 nM | > 85% | COc1c(Cl)ccc(COc2cccc(C3CCN(Cc4nc5c(OC(F)F)cc(C(=O)O)cc5n4C)CC3)n2)c1F [Compound 212, 2-((4-(6-((4-Chloro-2-fluoro-3-methoxybenzyl)oxy)pyridin-2-yl)piperidin-1-yl)methyl)-4-(difluoromethoxy)-1-methyl-1H-benzo[d]imidazole-6-carboxylic acid]
23 | 10 to 100 nM | > 85% | O=C(O)c1cc(OC(F)F)c2nc(CN3CCC(c4cccc(OCc5ccc(Cl)cc5F)n4)CC3)n(CF)c2c1 [Compound 208, 2-((4-(6-((4-Chloro-2-fluorobenzyl)oxy)pyridin-2-yl)piperidin-1-yl)methyl)-4-(difluoromethoxy)-1-(fluoromethyl)-1H-benzo[d]imidazole-6-carboxylic acid]
24 | 100 to 1000 nM | 50 to 85% | Cn1c(CN2CCC(c3cccc(OCc4ccc(Cl)cc4F)n3)CC2)nc2c(OC(F)F)cc(NCC(=O)O)cc21 [Compound 255, (2-((4-(6-((4-chloro-2-fluorobenzyl)oxy)pyridin-2-yl)piperidin-1-yl)methyl)-4-(difluoromethoxy)-1-methyl-1H-benzo[d]imidazol-6-yl)glycine]
25 | 100 to 1000 nM | 50 to 85% | Cn1c(CN2CCC(c3cccc(OCc4ccc(Cl)cc4F)n3)CC2)nc2c(OCC3(C#N)CC3)cc(C(=O)O)cc21 [Compound 214, 2-((4-(6-((4-Chloro-2-fluorobenzyl)oxy)pyridin-2-yl)piperidin-1-yl)methyl)-4-((1-cyanocyclopropyl)methoxy)-1-methyl-1H-benzo[d]imidazole-6-carboxylic acid]
